Data: US20040023924A1, “Use of xyloglucan polymers and oligomers, and derivative compounds, as phytosanitary products and biofertilizers” (priority 2000, published 2004)

Experiments:
Format in all cases: cell-based, Acer pseudoplatanus L.
[1] = test system: 1,3 β-D-glucanase (EC 3.2.1.39); assay: Induction of a 1,3 β-D-glucanase response in elicited cells; conditions: 50 nM elicitor; for 1,3 β-D-glucanase response R: 42 hours; for 1,3 β-D-glucanase early response R: after 20 minutes
Description: (§1) Vegetable material: Acer pseudoplatanus L Cells in Suspension
(§2) Test: 2.10^6 Acer pseudoplatanus L. cells were elicited under circular stirring (80 rpm), in 25 ml of culture medium (without 2,4-D) by 50 nM of 2′-fucosyl lactose (compound A) or 50 nM of methyl α-L-Fuc (1→2) β-D-Gal (1→2) β-D-Xyl trisaccharide (compound B)(synthesized according to Lopez et al., 1994) or for a variable time (0 to 42 hours) in the presence or not in the presence of an effector: cycloheximide (1 μM), okadaic acid (5 nM), staurosporine (500 nM), or boroglycine (500 nM). The elicitation experiment is stopped by putting the cells in ice. The cells recovered after decantation and taken up in approximately 1 ml of elicitation buffer are the subject of a specific protein extraction.
(§3) D-glycosylhydrolase extraction. The enzyme extracts are prepared from elicited or non-elicited cells. The cells are homogenized at 0° C. in Tris-HCl buffer (50 mM pH 7.2) containing 1 M of NaCl with a Vibracell™ Bioblock sonicator, maximum power, for 3 times 1 minute. The homogenates are centrifuged at 4° C. (12000 g, 15 minutes) then dialysed and concentrated on Ultrafree™ Millipore ultrafiltration units (cut-off threshold 10 kDa). The retentates, taken up in distilled water, are crude extracts.
1,3 β-D-glucanase activity assay. This is based on colorimetric assay (ferricyanide test of Kidby and Davidson (1973) of the substrate reducing units (laminarin or laminarin hexamer) released during the hydrolysis. The reaction medium contains the enzyme extract (1 μg of proteins), the substrate (5 μM of reduced laminarin hexamer) in 100 μl of sodium acetate buffer (0.1 M), pH 5.0); the enzymatic reaction at 40° C. develops over a variable time (1 to 3 hours).
(§4) Evaluation of the experimental data. At least 2 kinetics were carried out per sample, and per set of experiments. The reaction rate (ΔA410 minutes^−1 for example) is obtained by linear regression from 4 kinetic curves. The results are expressed by the ratio R (enzymatic activity in elicited cells/enzymatic activity in non-elicited control cells).

[2] = test system: papain (EC 3.4.22.2); assay: Induction of a thiol-protease (papain) inhibitor in elicited cells; conditions: 50 nM elicitor; for Papain inhibitor potential, early reaction: after 30 minutes; for Papain inhibitor potential, late reaction: after 42 hours
Description: Vegetable Material: Acer pseudoplatanus L. Cells in Suspension
Test: 2.10^6 cells of Acer pseudoplatanus L. were elicited by 50 nM of 2′-fucosyl lactose (compound A) or by 50 nM of methyl α-L-Fuc (1→2)β-D-Gal (1→2)β-D-Xyl trisaccharide (compound B) (synthesized according to Lopez et al., 1994) for 30 minutes or for 42 hours. Inhibitors of protease (IP) were prepared according to the protocol of Walker-Simmons (1977) starting from elicited or non-elicited cells. It was verified that the viability of the cells was maintained at more than 85% for the whole duration of the experiment.
Papain activity assay: the reaction medium contains an aliquot of IP extract (equivalent to 1 or 2 μg of proteins) in sodium phosphate citrate buffer (0.1M) pH 6 enriched with cysteine-HCl (5 mM), papain (EC 3.4.22.2) (0.48 units), p-nitroanilide N-α-benzoyl-D-L-arginine (BAPNA) (0.27 mM). The activity assay is based on the absorbance measurement at 410 nm. The reaction rate is given by ΔA410 min^−1.
Evaluation of the experimental data: for a given sample, the activity of an IP inhibitor isolated from this sample is estimated by developing the protease kinetics (recording at 410 nm for IO minutes in the presence or not in the presence of a variable quantity of inhibitor). The experimental conditions adopted (incubation time, substrate, enzyme and IP extract concentrations) are those which lead to linear and reproducible kinetics. The initial reaction rate is the slope α(A410 minutes^−1) of a curve A410=f(t). For a given sample, at least three curves are plotted and the initial rate is deduced by linear regression. The protease activity modulation capacity is expressed as a % of the control activity (protease activity without IP inhibitor).
The elicitation response is evaluated according to the papain inhibition measured in the presence of a protease inhibitor prepared from cells elicited by 2′ fucosyl lactose (2A) or by methyl α-L-Fuc (12) β-D-Gal (12) β-D-Xyl trisaccharide (2B); the results are expressed as a % of the control activity (papain activity in the non-elicited cells measured without inhibitor).

[3] = test system: endochitinase (EC 3.2.1.14); assay: Induction of an endochitinase response in elicited cells; conditions: 50 nM elicitor; for Endochitinase response: 42 hours; for Endochitinase early response R: after approximately 25 minutes
Description: as §1, §2, §3
Endochitinase activity assay. This is based on the released reducing sugar assay according to Somogyi (1952). The reaction medium contains the enzyme extract (1 μg of proteins), the substrate (25 μg of chitin) in 100 μl of sodium acetate buffer (0.1 M), pH 5.0; the enzymatic reaction at 40° C. develops over a variable time (1 to 5 hours).
as §4

[4] = test system: 1,4 β-D-glucanase (EC 3.2.1.4); assay: Induction of a 1,4 β-D-glucanase response in elicited cells; conditions: 50 nM elicitor; for 1,4 β-D-glucanase response R: 42 hours; for 1,4 β-D-glucanase early response R: after 20 minutes
Description: as §1, §2, §3
1,4 β-D-glucanase activity assay. This is based on colorimetric assay (ferricyanide test of Kidby and Davidson (1973) of the cellopentaose substrate reducing units released during the hydrolysis. The reaction medium contains the enzyme extract (1 μg of proteins), reduced cellopentaose (4 μM) in 100 μl of sodium acetate buffer (0.1 M), pH 5.0); the enzymatic reaction at 40° C. develops over a variable time (1 to 3 hours).
as §4

Row | SMILES | 1,3 β-D-glucanase response R [1] | 1,3 β-D-glucanase early response R [1] | Papain inhibitor potential, early reaction [2] | Papain inhibitor potential, late reaction [2] | Endochitinase response [3] | Endochitinase early response R [3] | 1,4 β-D-glucanase response R [4] | 1,4 β-D-glucanase early response R [4]
1 | C[C@@H]1O[C@@H](O[C@H]2[C@H](O[C@H]3[C@H](O)[C@@H](O)[C@H](O)O[C@@H]3CO)O[C@H](CO)[C@H](O)[C@@H]2O)[C@@H](O)[C@H](O)[C@@H]1O [compound A, α-L-Fuc(1→2)β-D-Gal(1→4)β-D-Glc] | ~12 | ~3 | same papain inhibitor potential | lower intensity | no enzymatic activation was detected | ~6 | ~4 | ~5
2 | CO[C@@H]1OC[C@@H](O)[C@H](O)[C@H]1O[C@@H]1O[C@H](CO)[C@H](O)[C@H](O)[C@H]1O[C@@H]1O[C@@H](C)[C@@H](O)[C@@H](O)[C@@H]1O [compound B, methyl α-L-Fuc (1→2)β-D-Gal (1→2)β-D-Xyl] | ~12 | ~3 | same papain inhibitor potential | lower intensity | no enzymatic activation was detected | ~6 | ~4 | ~5
